Measured values reported in US20220401468A1 (priority 2021, published 2022).

Test system: VSV-eGFP-SARS-CoV-2
Type: cell-based, VSV-SARS-CoV-2 chimeric virus

Substance: Heparin sodium salt
- half-maximal inhibitory concentration (IC50), infected (GFP+) cells: 0.03 µg/mL
